Patent US8048924B2, “Methods and compositions employing 4-aminophenylacetic acid compounds” (Biocon Limited, priority 2001, dated 2011)
Where “and” joins values, the source holds several entries; their conditions need not be identical. Equal entries are not always repeated. Where two headings read alike, the source gives them in different places.

Assays:
[1] = test system: DNBS colitis; assay: DNBS colitis in the rat, equimolar rectal doses of 5-ASA, 4-APAA and mixture; format: in vivo, male Lewis rats; conditions: for average severity score for necrosis, Adventitia / average severity score for necrosis, Mucosa / average severity score for necrosis, Muscularis / average severity score for necrosis, Submucosa: colon histology, scale 1-5, intrarectal twice daily for four days; for reduction in colon:body weight [% BW] / reduction of adhesion scores: rectal b.i.d. 4 days; for reduction in colon:body weight [% BW]: 5-ASA 50 mg/kg, 4-APAA 49.5 mg/kg, mixture 50+49.5 mg/kg; for reduction of adhesion scores: vs vehicle/DNBS
Text: The purpose of this study was to histologically evaluate and compare the effects of three different therapeutic agents administered intrarectally (twice daily for four days) to male Lewis rats following intrarectal administration of dinitrobenzene sulfonic acid (DNBS). DNBS induced colitis in rats according to an established experimental model (see, for example, Bertran et al., “Intracolonic administration of zileuton, a selective 5-lipoxygenase inhibitor, accelerates healing in a rat model of chronic colitis,” Gut. 38(6):899-904 (1996), and Blau et al., “Relation between colonic inflammation severity and total low-molecular-weight antioxidant profiles in experimental colitis,” Dig Dis Sci. 45(6):1180-1187 (2000), the entire disclosures of which are incorporated herein by reference). SHAM and DNBS groups served as negative and positive controls, respectively.
Trimmed specimens of colon from 27 male rats were tested, including microtoming, and hematoxylin and eosin staining. The resulting 27 slides (1 transverse section per slide) were examined microscopically. Except for one rat from the SHAM group and one rat from the DNBS group, all slides had their labels taped over to facilitate blind reading. Lesions were graded on a scale of 1-5 (1=minimal; 2=mild; 3=moderate; 4=moderately-severe; 5=severe).
Because the pattern of necrosis often varied from section to section, the individual intestinal layers were scored separately.
Dinitrobenzene sulfonic acid (DNBS) colitis was induced (no ether anesthesia) in 4 groups 4 of 6 Lewis rats each. One DNBS group was dosed with vehicle (0.7% methyl cellulose) as well as an additional sham group of 6 animals that received a saline enema instead of DNBS. Intrarectal (ir) dosing was performed in conscious animals b.i.d. for 4 days. Drug treatments were as follows: • 5-aminosalicylic acid (5-ASA): 50 mg/kg • 4-aminophenylacetic acid (4-APAA): 49.5 mg/kg (equimolar to 5-ASA) • Mixture: 5-ASA+4-APAA: 50 mg/kg+49.5 mg/kg
Drugs were suspended in the above mentioned vehicle and staff blinded to drug groups. Daily weights and diarrhea scores were recorded. On the 5th day post-irritant rats were sacrificed, laparotomies performed and scored for intestinal adhesions and strictures; colectomized and colon weights recorded, colons opened longitudinally and inflammation/ulcerations scored.
The anti-inflammatory effects of 3 different treatments were compared in a DNBS model of colitis in 30 male Lewis rats weighing between 218 and 260 grams.
Animals were divided into 5 groups of 6 animals in each group: • 0.7% methylcellulose (vehicle)+normal saline • 0.7% methylcellulose (vehicle)+ethanolic solution of 2,4-dinitrobenzenesulfonic acid (DNBS) 30 mg • 5-ASA at 100 mg/kg·day+DNBS 30 mg/rectally • 4-APAA at 99 mg/kg·day+DNBS 30 mg/rectally • 5-ASA+4-APAA mixture (APAZA™) at 199 mg/kg·day+DNBS 30 mg/rectally
Experimental colitis was induced under light anesthesia (ketamine/xylazine) in 4 of 5 groups by instilling DNBS (30 mg) rectally at a volume of 0.5 mL to fasted rats. Each group of animals received rectal twice daily (bid) doses of either vehicle (0.7% methylcellulose) or test compounds (5-ASA, 4-APAA or APAZA™) for 4 days beginning 24 hours after either the normal saline or DNBS irritant was instilled. Body weight and incidence of diarrhea were recorded daily. Each animal in the 4 DNBS groups and in the single parallel saline group was sacrificed 5 days post irritant. Laparotomies and colectomies were performed and animals were scored for the presence and severity of intestinal adhesions, strictures, inflammation, and ulceration. Colon: body weight ratios were determined and tissue was examined histologically.

[2] = test system: DNBS colitis; assay: Study AA-PH-003: oral and rectal APAZA and sulfasalazine in DNBS colitis; format: in vivo, male Lewis rats; set-up: Average Diarrhea Score Day 3: scale not given here; conditions: for Colonic Inflammation Scores: scale 0-2
Experimental: Study AA-PH-003 was designed to evaluate the anti-inflammatory efficacy of oral and rectal doses of APAZATM and sulfasalazine in the DNBS colitis model in rats. […] Thirty-five adult male Lewis rats (body weight 200-250 g) were studied. […] Animal body weights and incidence of diarrhea were recorded daily. […] Animals in the DNBS groups and the parallel deionized water group were sacrificed on day 5. Laparotomies and colectomies were performed and animals were scored for the presence and severity of intestinal adhesions, strictures, inflammation, and ulceration. Colon: body weight ratios were determined and colon histopathology was performed.

[3] = Single oral dose pharmacokinetics of APAZA in dogs; format: in vivo, Beagle dogs; conditions: for AUC(0-t) / Cmax / Tmax: Beagle, dog, plasma, single oral dose 1000 mg/kg; for AUC(0-t): read-out: area under the plasma concentration-time curve (AUC0-t); for Cmax: read-out: mean maximum plasma concentration (Cmax); for Tmax: read-out: time to maximum plasma concentration (tmax)
[4] = orally + 30 mg DNBS, APAZA 200 mg/kg, sulfasalazine 265.6 mg/kg
[5] = rectally + 30 mg DNBS, APAZA 200 mg/kg, sulfasalazine 265.6 mg/kg

## Nc1ccc(CC(=O)O)cc1 [4-APAA, (4-aminophenyl)-acetic acid]
[1]
  average severity score for necrosis, Adventitia: 1.67
  average severity score for necrosis, Mucosa: 4.33
  average severity score for necrosis, Muscularis: 3.17
  average severity score for necrosis, Submucosa: 4.00
  reduction in colon:body weight [% BW]: ~31% and ~30%
  reduction of adhesion scores: ~25%

## Nc1ccc(O)c(C(=O)O)c1 [5-ASA, 5-amino-2-hydroxy-benzoic acid, reference compound]
[1]
  average severity score for necrosis, Adventitia: 1.67
  average severity score for necrosis, Mucosa: 4.50
  average severity score for necrosis, Muscularis: 3.5
  average severity score for necrosis, Submucosa: 4.17
  reduction in colon:body weight [% BW]: ~31% and ~30%
  reduction of adhesion scores: ~17%

## O=C(O)Cc1ccc(/N=N/c2ccc(O)c(C(=O)O)c2)cc1 [APAZA™, 5-(4-carboxymethyl-phenylazo)-2-hydroxy-benzoic acid]
[2]; compared to tissues from placebo and sulfasalazine treated animals
  severity of mucosal ulcers: less severe
[2]; oral groups
  reduction relative to control in net colon: body weight (% BW) ratio: 23.8%
[2]; [4]
  Average Diarrhea Score Day 3: 2
  Colon Histopathology (# severe lesions): 2
  Length of Colonic Inflammation (cm): 2.5 cm
  Mean Body Weight: 213.8 g
  Mean Colon Length (cm): 12.3 cm
  Net Colon: Body Weight Ratio: 0.2309
  Colonic Inflammation Scores: 1.4
[2]; [5]
  Average Diarrhea Score Day 3: 2
  Length of Colonic Inflammation (cm): 1.6 cm
  Mean Body Weight: 218.6 g
  Mean Colon Length (cm): 12.4 cm
  Net Colon: Body Weight Ratio: 0.1983
  Colonic Inflammation Scores: 1.3
[3]; female dogs
  AUC(0-t): 40800 ng·h/mL
  Cmax: 2640 ng/mL
  Tmax: 24 h
[3]; male dogs
  AUC(0-t): 95400 ng·h/mL
  Cmax: 9780 ng/mL
  Tmax: 15 h
[3]; single oral dose, 100 to 1000 mg/kg
  plasma levels versus dose: increased in a dose-related manner
